Experimental findings from US6348477B1, “Anti-herpesvirus compounds and methods for identifying, making and using same” (Boehringer Ingelheim(Canada) Ltd., priority 1995, dated 2002) are described below.

Each structure is given as a SMILES string.

One assay has as its target T1, HSV-1 helicase-primase (Human herpesvirus 1, UniProt P10189+P10236).
T1 construct: made in house; host or cells: Sf21 insect cells triply infected with recombinant baculoviruses
Put plainly: HSV-1 DNA-dependent ATPase assay (inhibition of HSV-1 helicase-primase). The format is biochemical. The settings on record: Group 1 Table 1. The gist of the method:
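HSV-1 helicase-primase holoenzyme (UL5/UL8/UL52, expressed in baculovirus-infected Sf21 cells, purified; 3 μg/mL) with 4 mM ATP and 25 μM primed single-stranded M13 DNA in HEPES pH 7.5, 5.5 mM MgCl2, 3.3% DMSO, 20 min at 34°. Released phosphate is read with malachite green at 650 nm, and activity is taken from the net absorbance change.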

The next assay concerns HSV-1 strain F or KOS. The experiment in a line: Inhibition of herpes simplex virus (HSV-1) replication in cell culture (BHK-21 cells, glycoprotein C ELISA). The settings on record: Human alphaherpesvirus 1, BHK-21; Group 1 Table 1. The format is cell-based. The method, then:
B) Inhibition of Herpes Simplex Virus (HSV-1) Replication in Cell Culture
Assay: BHK-21 cells clone 13 (ATCC CCL10) were incubated for two days in 850 cm^2 roller bottles (2×10^7 cells/bottle) with α-MEM medium (Gibco Canada Inc., Burlington, Ontario, Canada) supplemented with 8% (v/v) fetal bovine serum (FBS, Gibco Canada, Inc.). The cells were trypsinized and then 3,000 cells in 100 μL of fresh medium were transferred into each well of a 96-well microtiter plate. The cells were incubated at 37° for a period of 3 days to reach a density of 50,000 cells per well. The cells were washed twice with 100 μL of α-MEM supplemented with 2% heat inactivated FBS and incubated for 1-2 hours in 100 μL of the same medium.
Thereafter, the cells were infected with HSV-1 strain F or KOS (multiplicity of infection=0.05 PFU/cell) in 50 μL of α-MEM supplemented with 2% heat inactivated FBS. Following one hour of virus absorption at 37°, the medium was removed and the cells were washed with α-MEM supplemented with 2% heat inactivated FBS (2×100 μL). The cells were incubated with or without 100 μL of the appropriate concentration of test reagent in α-MEM medium supplemented with 2% heat inactivated FBS. After 24 hours of incubation at 37°, the extent of viral replication was determined by an ELISA assay; for instance, the following assay that detects the late glycoprotein C of HSV-1.
Cells were fixed in the microtiter plate with 100 μL of 0.063% glutaraldehyde in phosphate buffered saline for 30 min at room temperature. The microtiter plate was then washed once with casein blocking solution and blocked with 200 μL of the same solution for one hour at room temperature. Thereafter, 100 μL of mAb C11 recognizing the glycoprotein C of HSV-1 (see E. Trybala et al., Journal of General Virology, 1994, 75, 743) was added to each well for two hours at room temperature. The plate was washed three times with phosphate buffered saline containing 0.05% polyoxyethylene (20) sorbitan monooleate. The cells were incubated with 100 μL of sheep anti-mouse IgG horseradish peroxidase for one hour at room temperature in the dark.
The plate was washed three times with 200 μL of the above-noted phosphate buffer saline preparation, and then once with 0.1 M sodium citrate (pH 4.5). Thereafter, 100 μL of orthophenylenediamine dihydrochloride (OPD, Gibco, Canada Inc.) was added to each well. The plate was agitated on a microplate shaker for 30 min in the dark. Color development was monitored at 450 nm using a microplate spectrophotometer.
SAS was used to calculate % inhibition of viral replication and to generate EC50 values.
(In general: An ELISA detects its analyte on a solid surface through an enzyme-linked reagent.)

T1 sequence (P10189 whole entry): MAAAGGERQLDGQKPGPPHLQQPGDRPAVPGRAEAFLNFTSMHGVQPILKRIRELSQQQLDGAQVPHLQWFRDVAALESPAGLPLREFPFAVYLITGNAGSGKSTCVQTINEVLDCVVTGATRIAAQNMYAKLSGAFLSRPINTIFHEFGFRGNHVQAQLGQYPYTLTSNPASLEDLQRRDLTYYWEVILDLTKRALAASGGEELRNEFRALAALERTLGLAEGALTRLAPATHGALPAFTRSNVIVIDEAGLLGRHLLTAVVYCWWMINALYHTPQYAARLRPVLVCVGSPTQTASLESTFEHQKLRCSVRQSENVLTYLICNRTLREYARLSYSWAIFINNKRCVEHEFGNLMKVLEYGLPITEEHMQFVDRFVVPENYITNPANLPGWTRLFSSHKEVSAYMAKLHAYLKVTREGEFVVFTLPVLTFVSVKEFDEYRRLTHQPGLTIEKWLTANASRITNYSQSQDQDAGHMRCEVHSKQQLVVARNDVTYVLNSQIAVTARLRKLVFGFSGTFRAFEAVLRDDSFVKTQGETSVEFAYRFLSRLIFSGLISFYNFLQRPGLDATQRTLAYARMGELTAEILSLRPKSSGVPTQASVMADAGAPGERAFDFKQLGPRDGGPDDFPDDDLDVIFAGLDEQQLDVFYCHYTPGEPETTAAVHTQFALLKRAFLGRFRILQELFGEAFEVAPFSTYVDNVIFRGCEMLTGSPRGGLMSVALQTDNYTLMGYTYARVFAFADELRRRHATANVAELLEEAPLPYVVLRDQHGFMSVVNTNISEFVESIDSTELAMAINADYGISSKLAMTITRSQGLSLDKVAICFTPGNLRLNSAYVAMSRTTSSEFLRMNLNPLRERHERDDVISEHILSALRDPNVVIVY
T1 sequence (P10192 whole entry, further chain): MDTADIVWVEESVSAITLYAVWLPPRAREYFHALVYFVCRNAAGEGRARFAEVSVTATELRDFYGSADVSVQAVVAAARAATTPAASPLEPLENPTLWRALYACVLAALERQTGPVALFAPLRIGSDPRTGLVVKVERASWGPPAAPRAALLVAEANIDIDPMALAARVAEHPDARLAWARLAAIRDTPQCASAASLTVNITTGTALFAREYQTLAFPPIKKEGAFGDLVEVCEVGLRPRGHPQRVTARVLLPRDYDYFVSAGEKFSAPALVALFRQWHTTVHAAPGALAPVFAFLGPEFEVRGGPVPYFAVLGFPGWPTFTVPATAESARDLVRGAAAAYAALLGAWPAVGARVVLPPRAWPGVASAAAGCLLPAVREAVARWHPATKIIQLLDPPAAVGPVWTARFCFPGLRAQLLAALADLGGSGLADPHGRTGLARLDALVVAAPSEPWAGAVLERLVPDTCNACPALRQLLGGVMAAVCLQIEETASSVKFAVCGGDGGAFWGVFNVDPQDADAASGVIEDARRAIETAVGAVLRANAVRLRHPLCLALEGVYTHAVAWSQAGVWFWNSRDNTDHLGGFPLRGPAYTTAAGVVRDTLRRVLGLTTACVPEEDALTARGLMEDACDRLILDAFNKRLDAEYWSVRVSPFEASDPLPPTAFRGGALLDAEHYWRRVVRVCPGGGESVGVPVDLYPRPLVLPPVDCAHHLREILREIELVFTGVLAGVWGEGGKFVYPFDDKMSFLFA
T1 sequence (P10236 whole entry): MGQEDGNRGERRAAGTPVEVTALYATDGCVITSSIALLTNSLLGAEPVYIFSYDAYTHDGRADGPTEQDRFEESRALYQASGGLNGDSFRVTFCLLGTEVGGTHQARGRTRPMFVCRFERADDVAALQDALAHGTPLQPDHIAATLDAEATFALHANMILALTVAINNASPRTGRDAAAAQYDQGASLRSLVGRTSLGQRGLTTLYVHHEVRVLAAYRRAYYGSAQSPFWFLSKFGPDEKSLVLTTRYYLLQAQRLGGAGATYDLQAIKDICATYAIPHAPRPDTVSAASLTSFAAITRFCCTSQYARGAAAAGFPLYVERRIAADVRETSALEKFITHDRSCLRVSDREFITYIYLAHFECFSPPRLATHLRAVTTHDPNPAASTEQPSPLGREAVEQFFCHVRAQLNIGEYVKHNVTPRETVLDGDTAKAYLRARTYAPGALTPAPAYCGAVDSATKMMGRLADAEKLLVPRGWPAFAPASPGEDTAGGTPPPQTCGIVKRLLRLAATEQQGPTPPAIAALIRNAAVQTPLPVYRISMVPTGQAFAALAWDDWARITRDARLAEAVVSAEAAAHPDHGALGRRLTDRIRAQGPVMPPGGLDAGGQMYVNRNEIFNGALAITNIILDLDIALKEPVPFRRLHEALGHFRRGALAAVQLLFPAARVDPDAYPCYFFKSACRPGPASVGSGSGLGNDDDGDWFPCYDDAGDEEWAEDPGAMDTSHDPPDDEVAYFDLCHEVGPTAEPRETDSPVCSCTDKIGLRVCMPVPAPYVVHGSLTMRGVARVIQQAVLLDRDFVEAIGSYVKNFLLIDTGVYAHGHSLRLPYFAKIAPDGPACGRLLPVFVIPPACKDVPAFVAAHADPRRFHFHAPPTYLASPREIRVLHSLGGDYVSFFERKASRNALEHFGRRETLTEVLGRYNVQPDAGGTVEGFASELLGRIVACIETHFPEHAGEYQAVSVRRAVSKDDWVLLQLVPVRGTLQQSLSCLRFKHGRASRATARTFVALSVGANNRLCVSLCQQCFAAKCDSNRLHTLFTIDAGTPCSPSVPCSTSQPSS

For `Nc1nc(-c2ccc(NC(=O)CN(CCc3ccccc3)C(=O)c3cccnc3)cc2)cs1` [Example 67], the midpoint of inhibition at HSV-1 helicase-primase, the IC50, lay at 350 nM. It took 210 nM to reach a half-maximal effect in the assay with HSV-1 strain F or KOS (EC50).

One may read the IC50 as the concentration that inhibits the measured activity by half. A lower IC50 goes with greater potency in that assay. For orientation: EC50 means the concentration that produces a half-maximal response.
